# Biological target: T1, recombinant human Syk (GST-hSyk fusion protein) (Homo sapiens, UniProt P43405)
# T1 construct: purchased Carna Biosciences 08-176
# Assay: Homogeneous Time-Resolved Fluorescence (HTRF) assay for the recombinant human Syk enzyme
# Type: biochemical
# Settings: 10-dose titration, 25 μM ATP; read-out: rhSYK IC50
# Summary of the method: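 IC50 came from a four-parameter fit over ten doses, 10 μM to 0.508 nM, with HTRF read-out (Eu-anti-pTyr antibody, SA-APC, EDTA stop, 30 min). The enzyme, 5 pM GST-hSyk, met compound for 10 min, then phosphorylated 250 nM biotin-peptide with 25 μM ATP and 5 mM Mg for 45 min at room temperature, pH 7.5.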
row,IC50,Compound
1,3.66 nM,"Cc1cc(Nc2nccc(C(F)(F)F)n2)cc(-c2cnn(CC(C)(O)CO)c2)c1 (single isomer, unassigned) [Example 21.1, 2-Methyl-3-(4-(3-methyl-5-((4-(trifluoromethyl)pyrimidin-2-yl)amino)phenyl)-1H-pyrazol-1-yl)propane-1,2-diol]"

# Same assay, conditions: IC50 class; 10-dose titration, 25 μM ATP; read-out: rhSYK Activity
row,Compound,IC50
1,Cc1cc(Nc2nccc(C(F)(F)F)n2)cc(-c2cnn(CCOCCO)c2)c1 [Example 3.19],≤ 100 nM
2,"COc1nc(Nc2cc(C)cc(-c3cnn(C[C@](C)(O)CO)c3)c2)ncc1Cl [Example 2.98, (2S)-3-(4-{3-[(5-chloro-4-methoxypyrimidin-2-yl)amino]-5-methylphenyl}-1H-pyrazol-1-yl)-2-methylpropane-1,2-diol]",≤ 100 nM
3,"Cc1cc(Nc2nccc(C(F)(F)F)n2)cc(-c2cnn(C[C@H](N)C(N)=O)c2)c1 [Example 7.2, 3-[4-(3-methyl-5-{[4-(trifluoro-methyl)pyrimidin-2-yl]amino}phenyl)-1H-pyrazol-1-yl]-1-alaninamide]",≤ 100 nM
4,"Cc1cc(Nc2nccc(C(F)(F)F)n2)cc(-c2cnn(CCCO)c2)c1 [Example 3.31, 3-[4-(3-methyl-5-{[4-(trifluoromethyl)pyrimidin-2-yl]amino}-phenyl)-1H-pyrazol-1-yl]propan-1-ol]",≤ 100 nM
5,"COc1ccnc(Nc2cc(C)cc(-c3cnn(CC4CNC(=O)O4)c3)c2)n1 (centres unmarked) [Example 2.21, 5-[(4-{3-[(4-methoxypyrimidin-2-yl)amino]-5-methylphenyl}-1H-pyrazol-1-yl)methyl]-1,3-oxazolidin-2-one]",≤ 100 nM
6,"CC(=O)Nc1cc(Nc2nccc(C(F)(F)F)n2)cc(-c2cnn(C3CCC(C(=O)O)CC3)c2)c1 (centres unmarked) [Example 1.53, 4-{4-[3-(acetylamino)-5-{[4-(trifluoromethyl)pyrimidin-2-yl]amino}phenyl]-1H-pyrazol-1-yl}cyclohexanecarboxylic acid]",≤ 100 nM
7,"Cc1cc(Nc2nccc(C(F)(F)F)n2)cc(-c2cnn(C[C@H]3COC(=O)N3)c2)c1 [Example 3.96, (4S)-4-{[4-(3-methyl-5-{[4-(trifluoromethyl)pyrimidin-2-yl]amino}phenyl)-1H-pyrazol-1-yl]methyl}-1,3-oxazolidin-2-one]",≤ 100 nM
8,"Cc1cc(Nc2nccc(C(F)(F)F)n2)cc(-c2cnn(CC3CNC(=O)O3)c2)c1 (centres unmarked) [Example 3.33, 5-{[4-(3-methyl-5-{[4-(trifluoromethyl)pyrimidin-2-yl]amino}-phenyl)-1H-pyrazol-1-yl]methyl}-1,3-oxazolidin-2-one]",≤ 100 nM
9,"Cc1cc(Nc2nccc(OC(C)C)n2)cc(-c2cnn(C[C@H](O)C(N)=O)c2)c1 [Example 6.6, (2S)-2-hydroxy-3-[4-(3-methyl-5-{[4-(1-methyl-ethoxy)pyrimidin-2-yl]amino}-phenyl)-1H-pyrazol-1-yl]-propanamide]",≤ 100 nM
10,"Cc1cc(Nc2nccc(C(F)F)n2)cc(-c2cnn(CC3CNC(=O)O3)c2)c1 (centres unmarked) [Example 2.64, 5-{[4-(3-{[4-(difluoromethyl)pyrimidin-2-yl]amino}-5-methylphenyl)-1H-pyrazol-1-yl]methyl}-1,3-oxazolidin-2-one]",≤ 100 nM
11,"Cc1ccnc(Nc2cccc(-c3cnn(CC4CNC(=O)O4)c3)c2)n1 (centres unmarked) [Example 2.20, 5-[(4-{3-[(4-methylpyrimidin-2-yl)amino]phenyl}-1H-pyrazol-1-yl)methyl]-1,3-oxazolidin-2-one]",≤ 100 nM
12,"Cc1cc(Nc2cc(C(F)(F)F)ccn2)nc(-c2cnn(CC(O)c3ccc(C(N)=O)cc3)c2)c1 (centres unmarked) [Example 6.16, 4-{1-hydroxy-2-[4-(4-methyl-6-{[4-(trifluoromethyl)-pyridin-2-yl]amino}-pyridin-2-yl)-1H-pyrazol-1-yl]ethyl}-benzamide]",≤ 100 nM
13,"COc1nc(Nc2cc(C)cc(-c3cnn(CCC(N)=O)c3)c2)ncc1F [Example 2.11, 3-(4-{3-[(5-fluoro-4-methoxypyrimidin-2-yl)amino]-5-methylphenyl}-1H-pyrazol-1-yl)propanamide]",≤ 100 nM
14,"Cc1cc(Nc2cc(C(F)(F)F)ccn2)nc(-c2cn[nH]c2)c1 [Example 1.12, 4-methyl-6-(1H-pyrazol-4-yl)-N-[4-(trifluoromethyl)pyridin-2-yl]pyridin-2-amine]",≤ 100 nM
15,Cc1cc(Nc2nccc(C(F)(F)F)n2)cc(-c2cnn(CCC(N)=O)c2)c1 [Example 3.3],≤ 100 nM
16,"O=C1NCC(Cn2cc(-c3cccc(Nc4nccc(C(F)(F)F)n4)c3)cn2)O1 (centres unmarked) [Example 2.27, 5-{[4-(3-{[4-(trifluoromethyl)pyrimidin-2-yl]amino}phenyl)-1H-pyrazol-1-yl]methyl}-1,3-oxazolidin-2-one]",≤ 100 nM
17,"Cc1cc(Nc2nccc(C3CC3)n2)cc(-c2cnn(C[C@](C)(O)CO)c2)c1 [Example 2.90, (2S)-3-(4-{3-[(4-cyclopropylpyrimidin-2-yl)amino]-5-methylphenyl}-1H-pyrazol-1-yl)-2-methylpropane-1,2-diol]",≤ 100 nM
18,"Cc1cc(Nc2nccc(C(F)(F)F)n2)cc(-c2cnn(CC3(O)CCN(CC(=O)O)CC3)c2)c1 [Example 12.15, (4-hydroxy-4-{[4-(3-methyl-5-{[4-(trifluoromethyl)-pyrimidin-2-yl]amino}-phenyl)-1H-pyrazol-1-yl]methyl}piperidin-1-yl)acetic acid]",≤ 100 nM
19,"Cc1cc(Nc2nccc(OCCO)n2)cc(-c2cnn(CCC(N)=O)c2)c1 [Example 3.38, 3-[4-(3-{[4-(2-hydroxyethoxy)pyrimidin-2-yl]amino}-5-methylphenyl)-1H-pyrazol-1-yl]propanamide]",≤ 100 nM
20,"COc1nc(Nc2cc(C)cc(-c3cnn(C[C@@H](O)C(=O)O)c3)c2)ncc1Cl [Example 11.9, (2R)-3-(4-{3-[(5-chloro-4-methoxy-pyrimidin-2-yl)-amino]-5-methyl-phenyl}-1H-pyrazol-1-yl)-2-hydroxy-propanoic acid]",≤ 100 nM
21,"COCCCNC(=O)[C@@H](O)Cn1cc(-c2cc(C)cc(Nc3nccc(C(F)(F)F)n3)c2)cn1 [Example 6.12, (2S)-2-hydroxy-N-(3-methoxypropyl)-3-[4-(3-methyl-5-{[4-(trifluorometh-yl)pyrimidin-2-yl]amino}phenyl)-1H-pyrazol-1-yl]propanamide]",≤ 100 nM
22,"Cc1cc(Nc2nccc(C(F)F)n2)cc(-c2cnn(CC(O)C(C)C)c2)c1 (centres unmarked) [Example 5.23, 1-[4-(3-{[4-(difluoromethyl)pyrimidin-2-yl]amino}-5-methylphenyl)-1H-pyrazol-1-yl]-3-methylbutan-2-ol]",≤ 100 nM
23,"Cc1cc(Nc2nccc(C(F)(F)F)n2)cc(-c2cnn(CC3(O)CCOCC3)c2)c1 [Example 12.5, 4-{[4-(3-methyl-5-{[4-(trifluoromethyl)pyrimidin-2-yl]amino}phenyl)-1H-pyrazol-1-yl]methyl}-tetrahydro-2H-pyran-4-ol]",≤ 100 nM
24,"Cc1cc(Nc2cc(C(F)F)ccn2)nc(-c2cnn(C(C)C3CNC(=O)C3)c2)c1 (centres unmarked) [Example 1.66, 4-{1-[4-(6-{[4-(difluoromethyl)pyridin-2-yl]amino}-4-methylpyridin-2-yl)-1H-pyrazol-1-yl]ethyl}pyrrolidin-2-one]",≤ 100 nM

# Results, then the compound that gave them:
row,IC50,Compound
1,≤ 100 nM,"Cc1cc(Nc2nccc(C(F)F)n2)cc(-c2cnn(CC(C)(O)C(C)(C)O)c2)c1 (centres unmarked) [Example 21.6, 1-[4-(3-{[4-(difluoromethyl)pyrimidin-2-yl]amino}-5-methylphenyl)-1H-pyrazol-1-yl]-2,3-dimethylbutane-2,3-diol]"
2,≤ 100 nM,"COC(=O)NC(C)(C)Cn1cc(-c2cc(C)cc(Nc3nccc(C(F)F)n3)c2)cn1 [Example 27.11, methyl {2-[4-(3-{[4-(difluoromethyl)pyrimidin-2-yl]amino}-5-methylphenyl)-1H-pyrazol-1-yl]-1,1-dimethylethyl}carbamate]"
3,≤ 100 nM,"Cc1cc(Nc2nccc(C(F)(F)F)n2)cc(-c2cnn(CC(C)(O)CO)c2)c1 (single isomer, unassigned) [Example 21.1, 2-Methyl-3-(4-(3-methyl-5-((4-(trifluoromethyl)pyrimidin-2-yl)amino)phenyl)-1H-pyrazol-1-yl)propane-1,2-diol]"
4,≤ 100 nM,"Cc1cc(Nc2ncc(F)c(C(F)F)n2)cc(-c2cnn(CC(C)(O)CC#N)c2)c1 (centres unmarked) [Example 20.5, 4-[4-(3-{[4-(difluoromethyl)-5-fluoropyrimidin-2-yl]amino}-5-methylphenyl)-1H-pyrazol-1-yl]-3-hydroxy-3-methylbutanenitrile]"
5,≤ 100 nM,"Cc1cc(Nc2cc(C(F)F)ccn2)nc(-c2cnn(CC3(O)CCC3)c2)c1 [Example 29.2, 1-{[4-(6-{[4-(difluoromethyl)pyridin-2-yl]amino}-4-methylpyridin-2-yl)-1H-pyrazol-1-yl]methyl}cyclobutanol]"
6,≤ 100 nM,"Cc1cc(Nc2nccc(C(F)F)n2)cc(-c2cnn(CC3OC(=O)NC3C)c2)c1 (single isomer, unassigned) [Example 23.14, 5-{[4-(3-{[4-(difluoromethyl)pyrimidin-2-yl]amino}-5-methylphenyl)-1H-pyrazol-1-yl]methyl}-4-methyl-1,3-oxazolidin-2-one]"
7,100 to 1000 nM,"CCOC(=O)CCc1cnn(-c2cc(C)cc(Nc3nccc(C(F)(F)F)n3)c2)c1 [Example 19.2, Ethyl 3-[1-(3-methyl-5-{[4-(trifluoromethyl)-pyrimidin-2-yl]amino}phenyl)-1H-pyrazol-4-yl]propanoate]"
8,≤ 100 nM,"COCC(=O)NCCn1cc(-c2cc(C)cc(Nc3nccc(C(F)F)n3)c2)cn1 [Example 26.5, N-{2-[4-(3-{[4-(difluoromethyl)pyrimidin-2-yl]amino}-5-methylphenyl)-1H-pyrazol-1-yl]ethyl}-2-methoxyacetamide]"
9,≤ 100 nM,"Cc1cc(Nc2nccc(C)n2)cc(-c2cnn(CC3OC(=O)NC3C)c2)c1 (single isomer, unassigned) [Example 23.7, 4-methyl-5-[(4-{3-methyl-5-[(4-methylpyrimidin-2-yl)amino]phenyl}-1H-pyrazol-1-yl)methyl]-1,3-oxazolidin-2-one]"
10,≤ 100 nM,"5-{[4-(3-{[4-(1,1-difluoromethyl)pyrimidin-2-yl]amino}-5-methylphenyl)-1H-pyrazol-1-yl]methyl}-4-methyl-1,3-oxazolidin-2-one [Example 23.11]"

# Reference: patent US9242984B2, “Pyrazolyl derivatives as Syk inhibitors” (Merck Sharp & Dohme Corp., priority 2012, dated 2016)
